In patent US8481522B2, “Platinum-N-heterocyclic carbene derivatives, preparation thereof and therapeutic use thereof” (Sanofi, priority 2008, dated 2013) one finds IC50 data, which are given here for 24 molecules.

pIC50: −log10 of the molar value. Where “and” joins values, the source holds several entries; their conditions need not be identical. Equal entries are not always repeated.

Assay [1] has as its system H460. Put plainly: Cytotoxicity, adherent cells, 14C-thymidine incorporation (cell proliferation). It is filed as cell-based. To be noted: NCI-H460 human non-small cell lung cancer, 96 h treatment. As to the method:
NCI-H460 is a human non-small cell lung cancer which has a mutation in the K-ras gene. This cell is sensitive to platinum compounds. In this cell line, cisplatin forms more adducts than oxaliplatin at the same concentration and yet the percentage repair is higher for oxaliplatin (DNA Repair 2006, 5: 219-225).
Cell proliferation is evaluated by the incorporation of ^14C-thymidine into the DNA of the cells. A549, CH1, CH1/DDP and H460 are cultured in Dulbecco's modified Eagle's medium (DMEM), SK-OV-3 in Mc-Coy medium, A2780 and A2780/DDP in RPMI1640 medium. All the media contain 10% foetal calf serum, 2 mM L-glutamine, 100 units/ml of penicillin and […] of streptomycin. The incubation is performed at 37° C. in a 95% air/5% CO2 atmosphere.
The cells, at the exponential growth phase, are introduced into the wells of a Cytostar 96-well plate, containing a scintillation fluid (Cytostar-T scintillating microplate, GE Healthcare Bio-Sciences AB, Uppsala, Sweden), at the density of 5×10^3 to 10^4 cells per well, in an amount of 180 μl per well. After incubating for 4 hours, the test compounds are added. The compounds are prepared beforehand as a stock solution at the concentration of 10 mM in DMSO. A serial dilution is performed before the compounds are brought into contact with the cells in a volume of 10 μl. After incubating for 72 hours at 37° C. in an atmosphere of 95% air/5% CO2, 0.1 μCi/well of ^14C-thymidine is added. 24 h later (total 96 h of treatment), the incorporation of ^14C-thymidine is recorded on a suitable scintillation counter (MicroBeta radioactivity counting, Perkin-Elmer Life Sciences, Boston, Mass., USA). The mean values obtained in the experimental groups are divided by the mean values obtained in the control groups in order to obtain percentages relative to the controls.
(§1) The IC50 values are evaluated from curves presenting the percentage viability as a function of the concentration of the test compound, using the Biostat speed software. The IC50 is defined as the concentration of the compound which inhibits 50% of the cell proliferation or 50% of the cell viability.
Background: Dividing cells build labelled thymidine or BrdU into new DNA.

Assay [2] deals with CCRF-CEM cells. Put plainly: Cytotoxicity, non-adherent CCRF-CEM cells, CellTiter-Glo luminescent cell viability. Type of assay: cell-based. To be noted: CCRF-CEM human T leukaemia, 96 h incubation. How it is done: CCRF-CEM is a human T leukaemia (Cancer 1965, 18: 522-529). Oxaliplatin induces bifunctional lesions such as inter- and intra-DNA strand adducts on these CCRF-CEM cells (Mol Pharmacol 2000, 58: 920-927). […] This deficiency makes these cells particularly […] to alkylating agents and to platinum compounds.
For the non-adherent CCRF-CEM cells, the cell viability is measured by the luminescence test CellTiter-Glo® Luminescent Cell Viability Assay (Promega, Madison, Wis., USA). When it is added to the cells, the reagent produces a luminescence in the presence of the ATP of the living cells. The results are evaluated on a suitable reader (Envision, Perkin-Elmer Life Sciences, Boston, Mass., USA).
The CCRF-CEM cells are cultured in RPMI1640 medium containing 10% foetal calf serum, 2 mM L-glutamine, 100 units/ml of penicillin and […] of streptomycin, at 37° C. in a 95% air/5% CO2 atmosphere. The cells, at the exponential growth phase, are introduced into the wells of a 96-well plate at the density of 5×10^3 cells per well in an opaque plate (Greiner), in a volume of 150 μl. After incubating for 4 h at 37° C. in a 95% air/5% CO2 atmosphere, the compounds (concentrated 20-fold) are added in a volume of 8 μl. The compounds are prepared beforehand as a stock solution at the concentration of 10 mM in DMSO. A serial dilution is performed before the compounds are brought into contact with the cells. After incubating for 96 h at 37° C., 100 μl of agents (CellTiter-Glo) are added. After lysing the cells, the release of ATP is evaluated on the Envision reader.
as §1
(Cellular ATP, detected with luciferase, serves as a proxy for viable cell number.)

As to `Cn1ccn(C)[c]1=[Pt-]([I])([I])[NH2+]Cc1ccc(C(F)(F)F)cc1` [Example 14, trans-diiodo[N-4-(trifluoromethyl)benzylamine](1,3-dimethylimidazol-2-ylidene)platinum(II)], the values for the negative-log IC50 (pIC50) in assay [1] and in assay [2] were 5.59 and 5.77, respectively.

Regarding `Cn1[c](=[Pt]([I])([I])[NH]C2CCCCC2)n(C)c2ccccc21` [Example 8, trans-diiodo(N-cyclohexylamine)(1,3-dimethylbenzimidazol-2-ylidene)platinum(II)], the negative logarithm of the IC50 (pIC50) in assay [1] is 5.72; in assay [2], 5.51.

As for `CN1CCC([NH2+][Pt-]([I])([I])=[c]2n(C)ccn2Cc2ccccc2)CC1` [Example 27, trans-diiodo[N-(1-methylpiperidin-4-ylamine)](1-methyl-3-benzyl-imidazol-2-ylidene)platinum(II)], the pIC50 is 5.77 in assay [1] and 5.80 in assay [2].

Take `Cn1ccn(C)[c]1=[Pt-]([I])([I])[NH2+]C1CCCCC1` [Example 1, trans-diiodo(N-cyclohexylamine)(1,3-dimethylimidazol-2-ylidene)platinum(II)]: the negative logarithm of the IC50 (pIC50) in assay [1] was 5.27 and 5.52; in assay [2], 5.55 and 5.72.

With `Cn1ccn(Cc2ccc(C(F)(F)F)cc2)[c]1=[Pt-]([NH2+]C1CCCCC1)([O][N+](=O)[O-])[O][N+](=O)[O-]` [Example 34, trans-dinitrato(N-cyclohexylamine)[1-methyl-3-(4-trifluoromethyl-benzyl)imidazol-2-ylidene]platinum(II)], the pIC50 in assay [1] was 5.51; in assay [2] it was 5.85.

`COc1ccc(Cn2cc[n+](C)[c]2[Pt-2]([I])([I])[NH2+]C2CCCCC2)cc1OC` [Example 35, trans-diiodo(N-cyclohexylamine)[3-(3,4-dimethoxybenzyl)-1-methylimidazol-2-ylidene]platinum(II)]: the negative-log IC50 (pIC50) was 5.57 in assay [1] and 5.89 in assay [2].

“trans-diiodo(N-cyclohexylamine)[3-benzyl-1-methyl-4-phenylimidazol-2-ylidene]platinum(II) [Example 21]”: the pIC50 was 5.72 in assay [1] and 6.05 in assay [2].

Turning to `Cn1c(-c2ccccc2)c(-c2ccccc2)n(C)[c]1=[Pt]([I])([I])[NH]C1CCCCC1` [Example 22, trans-diiodo(N-cyclohexylamine)[1,3-dimethyl-4,5-diphenylimidazol-2-ylidene]platinum(II)], the pIC50 is 5.74 in assay [1] and 5.92 in assay [2].

As to `Cn1ccn(C)[c]1=[Pt-]([I])([I])[NH2+]C1CC2CCC1C2` (racemic) [Example 6, trans-diiodo(N-exo(+/−)bicyclo[2.2.1]heptylamine)(1,3-dimethyl-imidazol-2-ylidene)platinum(II)], the negative logarithm of the IC50 (pIC50) was 5.55 in assay [1] and 5.77 in assay [2].

Take `COc1cccc(Cn2cc[n+](C)[c]2[Pt-2]([I])([I])[NH2+]C2CCCCC2)c1` [Example 32, trans-diiodo(N-cyclohexylamine)[3-(3-methoxybenzyl)-1-methyl-imidazol-2-ylidene]platinum(II)]: the pIC50 was 5.85 in assay [1] and 5.92 in assay [2].

`CCC(CC)[NH2+][Pt-]([I])([I])=[c]1n(C)ccn1Cc1ccccc1` [Example 28, trans-diiodo(N-pentan-3-ylamine)(1-methyl-3-benzylimidazol-2-ylidene)platinum(II)]: the negative-log IC50 (pIC50) in assay [1] is 5.80; in assay [2], 5.85.

On to `Cn1ccn(C)[c]1=[Pt-]([I])([I])[NH2+]C1CC2CCC1C2` (single isomer, unassigned) [Example 24, trans-diiodo(N-exo(−)bicyclo[2.2.1]heptylamine)(1,3-dimethylimidazol-2-ylidene)platinum(II)], for which the results for the pIC50 in assay [1] and in assay [2] were 5.68 and 6.05, respectively.

For `Cn1c(=O)c2c(n(C)c1=O)n(C)[c](=[Pt]([I])([I])[NH]C1CC3CCC1C3)n2C` (racemic) [Example 25, trans-diiodo(N-exo(+/−)bicyclo[2.2.1]heptylamine) (1,3,7,9-tetramethylxanthin-8-ylidene)platinum(II)], the negative-log IC50 (pIC50) in assay [1] is 5.82; in assay [2], 6.00.

As to `Cn1ccn(Cc2ccccc2)[c]1=[Pt-]([I])([I])[NH+]1CCOCC1` [Example 31, trans-diiodo(N-morpholine)(1-methyl-3-benzylimidazol-2-ylidene)-platinum(II)], the pIC50 was 6.05 in assay [1] and 6.15 in assay [2].

For `[I][Pt-]([I])([NH2+]C1CCCCC1)=[c]1n(C2CCCCC2)ccn1C1CCCCC1` [Example 18, trans-diiodo(N-cyclohexylamine)(1,3-dicyclohexylimidazol-2-ylidene)platinum(II)], the values for the pIC50 in assay [1] and in assay [2] were 5.57 and 5.85, respectively.

On to `Cn1ccn(Cc2ccc(C(F)(F)F)cc2)[c]1=[Pt-]([Br])([Br])[NH2+]C1CCCCC1` [Example 38, trans-dibromo(N-cyclohexylamine)[1-methyl-3-(4-trifluoromethyl-benzyl)imidazol-2-ylidene]platinum(II)], for which the negative-log IC50 (pIC50) in assay [1] was 5.52; in assay [2], 5.66.

On to “trans-diiodo(N-cyclohexylamine)(1-methyl-3-phenyl-1,2,4-triazol-5-ylidene)platinum(II) [Example 19]”, for which the figures for the negative-log IC50 (pIC50) in assay [1] and in assay [2] were 5.64 and 6.00, respectively.

Regarding `Cn1ccn(Cc2ccc(C(F)(F)F)cc2)[c]1=[Pt-]([I])([I])[NH+]1CCOCC1` [Example 36, trans-diiodo(N-morpholine)(1-methyl-3-(4-trifluoromethylbenzyl)-imidazol-2-ylidene)platinum(II)], the results for the negative-log IC50 (pIC50) in assay [1] and in assay [2] were 6.05 and 6.22, respectively.

For the molecule `Cn1ccn(Cc2ccccc2)[c]1=[Pt-]([I])([I])[NH2+]C1CCOCC1` [Example 29, trans-diiodo(N-4-aminotetrahydropyran)(1-methyl-3-benzylimidazol-2-ylidene)platinum(II)], the pIC50 was 6.05 in assay [1] and 6.30 in assay [2].

As for `C[n+]1ccn(Cc2cccc(C(F)(F)F)c2)[c]1[Pt-2]([I])([I])[NH2+]C1CCCCC1` [Example 33, trans-diiodo(N-cyclohexylamine)[1-methyl-3-(3-trifluoromethylbenzyl)imidazol-2-ylidene]platinum(II)], the pIC50 in assay [1] was 6.10; in assay [2] it was 6.15.

`Cn1cnn(C)[c]1=[Pt]([I])([I])[NH]C1CCCCC1` [Example 2, trans-diiodo(N-cyclohexylamine)(1,4-dimethyl-1,2,4-triazol-5-ylidene)platinum(II)]: the pIC50 was 5.60 in assay [1] and 5.82 in assay [2].

As for `Cn1ccn(C)[c]1=[Pt-]([I])([I])[NH2+]Cc1ccccc1` [Example 13, trans-diiodo(N-benzylamine)(1,3-dimethylimidazol-2-ylidene)-platinum(II)], the pIC50 in assay [1] is 5.52; in assay [2] it was 5.77.

As for `Cn1ccn(Cc2ccccc2)[c]1=[Pt-]([I])([I])[NH2+]C1CCCC1` [Example 30, trans-diiodo(N-cyclopentylamine)(1-methyl-3-benzylimidazol-2-ylidene)platinum(II)], the pIC50 in assay [1] is 5.89; in assay [2], 5.96.

For the molecule `Cn1ccn(-c2ccccc2)[c]1=[Pt-]([I])([I])[NH2+]C1CCCCC1` [Example 4, trans-diiodo(N-cyclohexylamine)(1-methyl-3-phenylimidazol-2-ylidene)platinum(II)], the negative logarithm of the IC50 (pIC50) in assay [1] is 5.64; in assay [2], 5.82.

For orientation: pIC50 means −log10 of the IC50, conventionally taken in molar units. A higher pIC50 goes with a small IC50.
